Source: patent US11267824B2, “Inhibitors of indoleamine 2,3-dioxygenase and/or tryptophan 2,3-dioxygenase” (IDORSIA PHARMACEUTICALS LTD, priority 2017, dated 2022)

How the values were obtained:
[1] = target: Recombinant full-length human IDO1 (Homo sapiens (Human), UniProt P14902); experiment: IDO1 enzymatic assay (IDO inhibitory activity); type: biochemical; details: 2 nM enzyme, 5 μM L-tryptophan, pH6.5, 30 min pre-incubation, NFK quantified by LCMS; mean values if measured multiple times; read-out: hIDO activity (IC50 in nM)
Method in brief: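 N-His-tagged enzyme from E. coli at 2 nM in 37.5 mM phosphate pH6.5 with ascorbate, methylene blue, catalase; compounds 10 μM–0.5 nM, 0.6% DMSO, pre-incubated 30 min RT, then 5 μM L-tryptophan for 30 min RT. NFK quantified by LCMS against d5-tryptophan; IC50 from duplicate four-parameter fit, means where repeated.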

[2] = target: Recombinant human TDO comprising amino acids 19-407 (Homo sapiens (Human), UniProt P48775); experiment: TDO2 enzymatic assay (TDO inhibitory activity); type: biochemical; details: 15 nM enzyme, 200 μM L-tryptophan, pH7, 30 min pre-incubation, NFK quantified by LCMS; mean values if measured multiple times; read-out: hTDO activity (IC50 in nM)
Method in brief: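 His-tagged enzyme (15 nM, E. coli-expressed) in pH 7 phosphate buffer with ascorbate, catalase, BSA, Tween 20, 0.6% DMSO; 30 min RT pre-incubation with compound (10 μM–0.5 nM), then 200 μM L-tryptophan for 30 min RT. N′-formylkynurenine quantified by LCMS against deuterated tryptophan; IC50 by four-parameter fit, duplicates.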

Chain of Recombinant human TDO comprising amino acids 19-407 (P48775 19-406 limits assumed): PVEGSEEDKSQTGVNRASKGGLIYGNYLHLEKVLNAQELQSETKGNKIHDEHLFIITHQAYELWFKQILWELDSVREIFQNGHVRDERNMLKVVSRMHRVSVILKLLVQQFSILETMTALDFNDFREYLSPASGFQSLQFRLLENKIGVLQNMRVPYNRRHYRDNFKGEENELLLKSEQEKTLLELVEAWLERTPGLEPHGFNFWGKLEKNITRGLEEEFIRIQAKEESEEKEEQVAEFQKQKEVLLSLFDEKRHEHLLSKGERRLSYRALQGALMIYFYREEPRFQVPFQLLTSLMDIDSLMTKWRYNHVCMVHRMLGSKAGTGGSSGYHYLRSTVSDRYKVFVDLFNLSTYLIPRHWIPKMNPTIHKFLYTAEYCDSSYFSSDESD
Chain of Recombinant full-length human IDO1 (P14902 whole entry): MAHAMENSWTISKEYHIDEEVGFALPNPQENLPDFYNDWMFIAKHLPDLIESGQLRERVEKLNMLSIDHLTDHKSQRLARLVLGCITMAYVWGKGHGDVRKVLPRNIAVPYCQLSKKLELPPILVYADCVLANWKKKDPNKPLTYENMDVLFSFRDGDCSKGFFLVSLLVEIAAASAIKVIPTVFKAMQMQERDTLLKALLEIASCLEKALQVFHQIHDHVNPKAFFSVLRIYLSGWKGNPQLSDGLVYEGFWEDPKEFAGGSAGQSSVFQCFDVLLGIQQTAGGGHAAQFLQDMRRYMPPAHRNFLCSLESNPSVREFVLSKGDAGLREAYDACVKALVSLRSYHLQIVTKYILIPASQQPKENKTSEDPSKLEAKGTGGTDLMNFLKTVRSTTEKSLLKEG

Structure (SMILES)	IC50 [1] [nM]	IC50 [2] [nM]
CC1(C(O)c2c(C(F)(F)F)sc3cncn23)CCCC1 (racemic) [Example 137, rac-(1-Methyl-cyclopentyl)-(2-trifluoromethyl-imidazo[5,1-b]thiazol-3-yl)-methanol]	16.3	54.7
OC(CC1CCC(C(F)F)CC1)c1c(C2CC2)sc2cncn12 (racemic) [Example 138, rac-1-(2-Cyclopropyl-imidazo[5,1-b]thiazol-3-yl)-2-(4-difluoromethyl-cyclohexyl)-ethanol]	24.3	467
Cc1sc2cncn2c1C(O)C1(C)CCCC1 (racemic) [Example 140, rac-(1-Methyl-cyclopentyl)-(2-methyl-imidazo[5,1-b]thiazol-3-yl)-methanol]	30	19.9
CCC1CCC(CC(O)c2c(C3CC3)sc3cncn23)CC1 (racemic) [Example 142, rac-1-(2-Cyclopropyl-imidazo[5,1-b]thiazol-3-yl)-2-(4-ethyl-cyclohexyl)-ethanol]	85.8	2000
OC(c1cccc(C(F)(F)F)c1)c1c(C2CC2)sc2cncn12 (racemic) [Example 143, rac-(2-Cyclopropyl-imidazo[5,1-b]thiazol-3-yl)-(3-trifluoromethyl-phenyl)-methanol]	587	765
OC(c1ccc(F)cc1)c1c(C2CC2)sc2cncn12 (racemic) [Example 144, rac-(2-Cyclopropyl-imidazo[5,1-b]thiazol-3-yl)-(4-fluoro-phenyl)-methanol]	32.8	475
OC(c1cccc(F)c1)c1c(C2CC2)sc2cncn12 (racemic) [Example 145, rac-(2-Cyclopropyl-imidazo[5,1-b]thiazol-3-yl)-(3-fluoro-phenyl)-methanol]	33.1	449
OC(c1ccc(Cl)cc1)c1c(C2CC2)sc2cncn12 (racemic) [Example 146, rac-(4-Chloro-phenyl)-(2-cyclopropyl-imidazo[5,1-b]thiazol-3-yl)-methanol]	63.9	1090
COc1ccccc1C(O)c1c(C2CC2)sc2cncn12 (racemic) [Example 147, rac-(2-Cyclopropyl-imidazo[5,1-b]thiazol-3-yl)-(2-methoxy-phenyl)-methanol]	1110	6800
Cc1ccccc1C(O)c1c(C2CC2)sc2cncn12 (racemic) [Example 148, rac-(2-Cyclopropyl-imidazo[5,1-b]thiazol-3-yl)-o-tolyl-methanol]	1160	2530
OC(c1cccc(Cl)c1)c1c(C2CC2)sc2cncn12 (racemic) [Example 149, rac-(3-Chloro-phenyl)-(2-cyclopropyl-imidazo[5,1-b]thiazol-3-yl)-methanol]	65.1	1820
CCCC1CCC(CC(O)c2c(C3CC3)sc3cncn23)CC1 (racemic) [Example 150, rac-1-(2-Cyclopropyl-imidazo[5,1-b]thiazol-3-yl)-2-(4-propyl-cyclohexy-etethanol]	687	3230
OC1CCC(C(O)c2c(C3CC3)sc3cncn23)CC1 (racemic) [Example 151, rac-4-[(2-Cyclopropyl-imidazo[5,1-b]thiazol-3-yl)-hydroxy-methyl]-cyclohexanol]	102	2640
OC1CCC(CC(O)c2c(C3CC3)sc3cncn23)CC1 (racemic) [Example 152, rac-4-[2-(2-Cyclopropyl-imidazo[5,1-b]thiazol-3-yl)-2-hydroxy-ethyl]-cyclohexanol]	18.4	1130
Cc1cc(-c2sc3cncn3c2C(O)C2CCCCC2)cs1 (racemic) [Example 153, rac-Cyclohexyl-[2-(5-methyl-thiophen-3-yl)-imidazo[5,1-b]thiazol-3-yl]-methanol]	766	854
OC(c1c(Cc2ccccc2)sc2cncn12)C1CCCCC1 (racemic) [Example 154, rac-(2-Benzyl-imidazo[5,1-b]thiazol-3-yl)-cyclohexyl-methanol]	7110	4270
OC(CC1CCCCC1)c1c(C2CC(F)(F)C2)sc2cncn12 (racemic) [Example 155, rac-2-Cyclohexyl-1-[2-(3,3-difluoro-cyclobutyl)-imidazo[5,1-b]thiazol-3-yl]-ethanol]	485	1910
OC(c1c(C2CC(F)(F)C2)sc2cncn12)C1CCCCC1 (racemic) [Example 156, rac-Cyclohexyl-[2-(3,3-difluoro-cyclobutyl)-imidazo[5,1-b]thiazol-3-yl]-methanol]	1070	1780
COCc1sc2cncn2c1C(O)C1CCCCC1 (racemic) [Example 157, rac-Cyclohexyl-(2-methoxymethyl-imidazo[5,1-b]thiazol-3-yl)-methanol]	744	327

Structure (SMILES)	IC50 [1] [nM]	IC50 [2] [nM]
Cc1sc2cncn2c1C(O)C#Cc1ccccc1 (racemic) [Example 158, rac-1-(2-Methyl-imidazo[5,1-b]thiazol-3-yl)-3-phenyl-prop-2-yn-1-ol]	459	> 10200
OC(c1ccc(C(F)(F)F)cc1)c1c(C2CC2)sc2cncn12 (racemic) [Example 159, rac-(2-Cyclopropyl-imidazo[5,1-b]thiazol-3-yl)-(4-trifluoromethyl-phenyl)-methanol]	305	2700
CCNC1CCC(CC(O)c2c(C3CC3)sc3cncn23)CC1 (racemic) [Example 160, rac-1-(2-Cyclopropyl-imidazo[5,1-b]thiazol-3-yl)-2-(4-ethylamino-cyclohexyl)-ethanol]	2370	> 10200
CC1(C)CCC(C(O)c2c(C(F)(F)F)sc3cncn23)CC1 (racemic) [Example 161, rac-(4,4-Dimethyl-cyclohexyl)-(2-trifluoromethyl-imidazo[5,1-b]thiazol-3-yl)-methanol]	58.3	2770
Cc1sc2cncn2c1C(O)c1ccccc1 (racemic) [Example 162, rac-(2-Methyl-imidazo[5,1-b]thiazol-3-yl)-phenyl-methanol]	561	1000
OC(c1ccccc1F)c1c(C2CC2)sc2cncn12 (racemic) [Example 163, rac-(2-Cyclopropyl-imidazo[5,1-b]thiazol-3-yl)-(2-fluoro-phenyl)-methanol]	56.7	1290
OC(c1ccccc1Cl)c1c(C2CC2)sc2cncn12 (racemic) [Example 164, rac-(2-Chloro-phenyl)-(2-cyclopropyl-imidazo[5,1-b]thiazol-3-yl)-methanol]	1120	3020
OC(c1c(C2CC2)sc2cncn12)C1CCCCCC1 (racemic) [Example 165, rac-Cycloheptyl-(2-cyclopropyl-imidazo[5,1-b]thiazol-3-yl)-methanol]	14.2	382
CC1(C(O)c2c(C3CC3)sc3cncn23)CCCCCC1 (racemic) [Example 166, rac-(2-Cyclopropyl-imidazo[5,1-b]thiazol-3-yl)-(1-methyl-cycloheptyl)-methanol]	32.1	310
Cc1sc2cncn2c1C(O)C1CCN(c2ccccc2)CC1 (racemic) [Example 169, rac-(2-Methyl-imidazo[5,1-b]thiazol-3-yl)-(1-phenyl-piperidin-4-yl)-methanol]	537	3960
CC1(c2sc3cncn3c2C(O)C2CCCCC2)CC1 (racemic) [Example 170, rac-Cyclohexyl-[2-(1-methyl-cyclopropyl)-imidazo[5,1-b]thiazol-3-yl]-methanol]	415	2260
OC(c1cccs1)c1c(C2CC2)sc2cncn12 (racemic) [Example 171, rac-(2-Cyclopropyl-imidazo[5,1-b]thiazol-3-yl)-thiophen-2-yl-methanol]	90.3	1580
CCc1sc2cncn2c1C(O)C1(C)CCCC1 (racemic) [Example 172, rac-(2-Ethyl-imidazo[5,1-b]thiazol-3-yl)-(1-methyl-cyclopentyl)-methanol]	4.97	28.7
OC(c1ccsc1)c1c(C2CC2)sc2cncn12 (racemic) [Example 173, rac-(2-Cyclopropyl-imidazo[5,1-b]thiazol-3-yl)-thiophen-3-yl-methanol]	77.3	1770
Cc1sc2cncn2c1C(O)C1(C)CCCCC1 (racemic) [Example 174, rac-(1-Methyl-cyclohexyl)-(2-methyl-imidazo[5,1-b]thiazol-3-yl)-methanol]	32.4	37.9
CCc1sc2cncn2c1C(O)C1(C)CCCCC1 (racemic) [Example 175, rac-(2-Ethyl-imidazo[5,1-b]thiazol-3-yl)-(1-methyl-cyclohexyl)-methanol]	7.04	66.8
CCc1sc2cncn2c1C(O)c1ccccc1 (racemic) [Example 176, rac-(2-Ethyl-imidazo[5,1-b]thiazol-3-yl)-phenyl-methanol]	59.3	195
Cc1sc2cncn2c1C(O)CC1CCC(C)(C)CC1 (racemic) [Example 177, rac-2-(4,4-Dimethyl-cyclohexyl)-1-(2-methyl-imidazo[5,1-b]thiazol-3-yl)-ethanol]	199	1950
